The text below walks through data of ChEMBL document CHEMBL3751662, “Novel quinoline derivatives as potent in vitro -glucosidase inhibitors: in silico studies and SAR predictions” (Medchemcomm, 2015).

Data set [1] can be described thus: Cytotoxicity against mouse 3T3L1 cells assessed as cell viability at 1 to 20 ug/ml after 48 hrs by MTT assay. The format is cell-based. The conditions noted are these: 3t3-l1, 48 h.
Data set [2] in a line: Cytotoxicity against Wistar rat CC1 cells assessed as cell viability at 1 to 20 ug/ml after 48 hrs by MTT assay. The format is cell-based. Particulars: cc-1, 48 h.
The target of data set [3] is alpha-glucosidase (Saccharomyces cerevisiae). Description: Inhibition of alpha-glucosidase (Saccharomyces cerevisiae) using p-nitrophenyl glucopyranoside as substrate preincubated for 10 mins followed by substrate addition measured after 30 mins by plate reader analysis.
Data set [4] has as its system alpha-glucosidase (Saccharomyces cerevisiae). In words: Potency index, ratio of acarbose IC50 to compound IC50 for alpha glucosidase (Saccharomyces cerevisiae).

Molecules are shown by their SMILES.

Consider `O=C(N/N=C/c1ccc(O)cc1O)c1ccc(-c2nnc(-c3ccc4ncccc4c3)o2)cc1`, for which the Activity entry in data set [1] and in data set [2] was “Non-toxic” throughout. Also, in data set [3], the IC50 – broadly, the concentration that gives 50% inhibition – was determined as 8.45 µM.

Turning to `O=C(N/N=C/c1cccc(Cl)c1)c1ccc(-c2nnc(-c3ccc4ncccc4c3)o2)cc1`, the Activity entry in data set [1] and in data set [2] was “Non-toxic” each time. The same molecule yielded an IC50 in data set [3] of 30.2 µM.

As to `O=C(N/N=C/c1ccccc1[N+](=O)[O-])c1ccc(-c2nnc(-c3ccc4ncccc4c3)o2)cc1`, the Activity entry in data set [1] and in data set [2] was “Non-toxic” throughout. Further, the IC50 in data set [3] was found to be 15.2 µM.

For the molecule `O=C(N/N=C/c1cccc([N+](=O)[O-])c1)c1ccc(-c2nnc(-c3ccc4ncccc4c3)o2)cc1`, the Activity entry in data set [1] and in data set [2] was “Non-toxic” in each case. The molecule further showed an IC50 in data set [3] of 36.5 µM.

Turning to `Cc1ccccc1/C=N/NC(=O)c1ccc(-c2nnc(-c3ccc4ncccc4c3)o2)cc1`, the Activity result in data set [1] and in data set [2] was “Non-toxic” in each case. In addition, the concentration for half-maximal inhibition (IC50) in data set [3] turned out to be 80.1 µM.

As to `O=C(N/N=C/c1ccc(Cl)cc1)c1ccc(-c2nnc(-c3ccc4ncccc4c3)o2)cc1`, the Activity entry in data set [1] and in data set [2] was “Non-toxic” throughout. In data set [3], this molecule gave an IC50 of 3.9 µM.

Consider `O=C(N/N=C/c1ccccc1Cl)c1ccc(-c2nnc(-c3ccc4ncccc4c3)o2)cc1`, for which the Activity result in data set [1] and in data set [2] was “Non-toxic” throughout. The IC50 in data set [3] worked out at 4.16 µM.

Regarding `O=C(N/N=C/c1cccc(O)c1)c1ccc(-c2nnc(-c3ccc4ncccc4c3)o2)cc1`, the Activity result in data set [1] and in data set [2] was “Non-toxic” each time. Besides, the IC50 in data set [3] worked out at 39.2 µM.

On to `O=C(N/N=C/c1c(O)cc(O)cc1O)c1ccc(-c2nnc(-c3ccc4ncccc4c3)o2)cc1`, for which the Activity entry in data set [1] and in data set [2] was “Non-toxic” in each case. The molecule further had an IC50 in data set [3] of 8.12 µM.

Turning to `COc1ccc(/C=N/NC(=O)c2ccc(-c3nnc(-c4ccc5ncccc5c4)o3)cc2)c(O)c1`, the Activity result in data set [1] and in data set [2] was “Non-toxic” each time. Moreover, the midpoint of inhibition in data set [3], the IC50, lay at 9.2 µM.

With `Cc1ccc(/C=N/NC(=O)c2ccc(-c3nnc(-c4ccc5ncccc5c4)o3)cc2)cc1`, the Activity result in data set [1] and in data set [2] was “Non-toxic” throughout. Also, the IC50 in data set [3] amounted to 102 µM.

For the molecule `COc1ccc(O)c(/C=N/NC(=O)c2ccc(-c3nnc(-c4ccc5ncccc5c4)o3)cc2)c1`, the Activity result in data set [1] and in data set [2] was “Non-toxic” throughout. This molecule also registered an IC50 in data set [3] of 6.2 µM.

For `O=C(N/N=C/c1ccc([N+](=O)[O-])cc1)c1ccc(-c2nnc(-c3ccc4ncccc4c3)o2)cc1`, the Activity entry in data set [1] and in data set [2] was “Non-toxic” in each case. Also, the IC50 in data set [3] stood at 63.5 µM.

`O=C(N/N=C/c1ccccc1O)c1ccc(-c2nnc(-c3ccc4ncccc4c3)o2)cc1`: in data set [4], the Ratio IC50 is greater than 14. For the same molecule, the Activity entry in data set [1] and in data set [2] was “Non-toxic” in each case. Also, half-maximal inhibition in data set [3] (IC50) required 2.86 µM.

Regarding `O=C(N/N=C/c1ccc(O)c(O)c1)c1ccc(-c2nnc(-c3ccc4ncccc4c3)o2)cc1`, the Ratio IC50 in data set [4] is greater than 14. For the same molecule, the Activity entry in data set [1] and in data set [2] was “Non-toxic” each time. This molecule returned an IC50 in data set [3] of 2.6 µM.

With `O=C(N/N=C/c1cccc(O)c1O)c1ccc(-c2nnc(-c3ccc4ncccc4c3)o2)cc1`, the Activity result in data set [1] and in data set [2] was “Non-toxic” throughout. The IC50 in data set [3] amounted to 6.8 µM.

On to `O=C(N/N=C/c1cc(O)ccc1O)c1ccc(-c2nnc(-c3ccc4ncccc4c3)o2)cc1`, for which the Activity entry in data set [1] and in data set [2] was “Non-toxic” throughout. This molecule also yielded an IC50 in data set [3] of 8.5 µM.

For `O=C(N/N=C/c1cc(O)cc(O)c1)c1ccc(-c2nnc(-c3ccc4ncccc4c3)o2)cc1`, the Activity entry in data set [1] and in data set [2] was “Non-toxic” each time. Moreover, the IC50 in data set [3] amounted to 37.1 µM.

Consider `COc1ccc(/C=N/NC(=O)c2ccc(-c3nnc(-c4ccc5ncccc5c4)o3)cc2)cc1O`, for which the Activity result in data set [1] and in data set [2] was “Non-toxic” each time. The molecule further returned a half-maximal inhibitory concentration (IC50) in data set [3] of 21.2 µM.

As for `O=C(N/N=C/c1ccc(O)cc1)c1ccc(-c2nnc(-c3ccc4ncccc4c3)o2)cc1`, the Activity entry in data set [1] and in data set [2] was “Non-toxic” throughout. The molecule also had an IC50 in data set [3] of 27.2 µM.

For the molecule `Cc1cccc(/C=N/NC(=O)c2ccc(-c3nnc(-c4ccc5ncccc5c4)o3)cc2)c1`, the Activity entry in data set [1] and in data set [2] was “Non-toxic” throughout. The molecule also came in with an IC50 in data set [3] of 100 µM.

Regarding `O=C(N/N=C/c1cc(O)c(O)cc1O)c1ccc(-c2nnc(-c3ccc4ncccc4c3)o2)cc1`, the Ratio IC50 in data set [4] was greater than 14. The Activity result in data set [1] and in data set [2] was “Non-toxic” in each case. In addition, the IC50 in data set [3] is 2.6 µM.

Regarding `O=C(N/N=C/c1ccccn1)c1ccc(-c2nnc(-c3ccc4ncccc4c3)o2)cc1`, the Activity entry in data set [1] and in data set [2] was “Non-toxic” in each case. The IC50 in data set [3] came to 40.5 µM.

Take `O=C(N/N=C/c1ccncc1)c1ccc(-c2nnc(-c3ccc4ncccc4c3)o2)cc1`: the Activity result in data set [1] and in data set [2] was “Non-toxic” each time. Moreover, the inhibition (usually the percentage by which the read-out fell short of the control) in data set [3] was less than 50%.

For `O=C(N/N=C/c1cccnc1)c1ccc(-c2nnc(-c3ccc4ncccc4c3)o2)cc1`, the Activity result in data set [1] and in data set [2] was “Non-toxic” each time. Further, the inhibition in data set [3] is less than 50%.
